From patent publication US11008313B2, “Substituted 1-methyl-1,2,3,4-tetrahydroisoquinoline molecules as PCSK9 allosteric binders” (Merck Sharp & Dohme Corp., priority 2016, dated 2021)

Tests used:
[1] = target: T1, PCSK9 (Homo sapiens, UniProt Q8NBP7); experiment: Differential scanning calorimetry (DSC) assay, direct binding / thermal stabilization of PCSK9; details: Tm(with compound)−Tm(no compound); 2 μM PCSK9, 300 μM test compound
Outline: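 Thermal stabilization of 2 μM PCSK9 with or without 300 μM compound in 25 mM HEPES pH 7.5, 150 mM NaCl, 1 mM CaCl2, 3.75% DMSO. Sample heated 20–80 °C at 200 °C/hr against buffer reference. Protein Tm derived from each thermogram.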

[2] = target: T1, PCSK9; experiment: Fluorescence polarization competition binding assay (probe: compound of Example 57); details: 2 μM PCSK9, 50 nM compound of Example 57 as probe, overnight incubation; read-out: FP IC
Outline: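 Competition fluorescence-polarization binding: 2 μM PCSK9 with 50 nM fluorescent probe in 20 mM HEPES pH 7.5, 150 mM NaCl, 1 mM CaCl2, 0.005% P-20, incubated with test compound overnight in the dark. Anisotropy read; % inhibition relative to DMSO wells and probe-without-PCSK9 wells.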

T1 sequence (Q8NBP7 153-692): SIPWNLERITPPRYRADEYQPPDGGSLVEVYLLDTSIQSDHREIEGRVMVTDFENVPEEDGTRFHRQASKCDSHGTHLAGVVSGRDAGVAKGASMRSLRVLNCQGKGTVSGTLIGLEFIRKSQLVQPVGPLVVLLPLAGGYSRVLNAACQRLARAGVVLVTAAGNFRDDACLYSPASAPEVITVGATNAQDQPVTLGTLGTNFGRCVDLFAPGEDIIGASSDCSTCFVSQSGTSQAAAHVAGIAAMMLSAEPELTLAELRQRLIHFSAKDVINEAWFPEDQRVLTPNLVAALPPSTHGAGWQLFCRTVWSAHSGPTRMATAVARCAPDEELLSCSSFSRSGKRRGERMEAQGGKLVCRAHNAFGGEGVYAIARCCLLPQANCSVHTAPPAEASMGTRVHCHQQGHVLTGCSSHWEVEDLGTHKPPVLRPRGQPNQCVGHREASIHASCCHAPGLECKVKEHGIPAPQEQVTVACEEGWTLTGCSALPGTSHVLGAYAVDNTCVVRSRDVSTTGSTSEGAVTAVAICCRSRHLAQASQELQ

**Q.** Which results are given for `C[C@]1(CC(=O)Nc2nccs2)NCCc2cc(OCC(=O)O)c(Oc3ccc(C(=O)O)c(F)c3)cc21` [Example 64, (R)-4-((6-(carboxymethoxy)-1-methyl-1-(2-oxo-2-(thiazol-2-ylamino)ethyl)-1,2,3,4-tetrahydroisoquinolin-7-yl)oxy)-2-fluorobenzoic acid]?
**A.** ΔTm at 300 µM [1]: 7.83 °C; IC50 [2]: 294 nM

**Q.** What does the source list for `COc1cc2c(cc1Oc1ccc(-c3c[nH]c4c(C(=O)O)cccc34)c(F)c1)[C@@](C)(CC(=O)Nc1nccs1)NCC2` [Example 21, (R)-3-(2-fluoro-4-((6-methoxy-1-methyl-1-(2-oxo-2-(thiazol-2-ylamino)ethyl)-1,2,3,4-tetrahydroisoquinolin-7-yl)oxy)phenyl)-1H-indole-7-carboxylic acid]?
**A.** ΔTm at 300 µM [1]: 6.58 °C; IC50 [2]: 200 nM

**Q.** How did the ΔTm at 300 µM [1] turn out when `COC(=O)c1ccc2cc1OCCCCCc1csc(n1)NC(=O)C[C@@]1(C)NCCc3cc(OC)c(cc31)O2` [Example 3, methyl (R,Z)-36-methoxy-31-methyl-5-oxo-31,32,33,34-tetrahydro-2,13-dioxa-6-aza-7(2,4)-thiazola-3(7,1)-isoquinolina-1(1,3)-benzenacyclotridecaphane-14-carboxylate] was run?
**A.** Its ΔTm at 300 µM is 4.92 °C.

**Q.** What about the IC50 [2] of the same compound?
**A.** The IC50 was 1250 nM.

**Q.** `CC(=O)NCc1cn(CCOc2cc3c(cc2Oc2ccc(C(=O)O)c(F)c2)[C@@](C)(CC(=O)Nc2nccs2)NCC3)nn1` [Example 46] was tested. Which ΔTm at 300 µM [1] did it give?
**A.** Its ΔTm at 300 µM is 6.48 °C.

**Q.** And the IC50 [2]?
**A.** Its IC50 is 602 nM.

**Q.** `C[C@]1(CC(=O)Nc2nccs2)NCCc2cc(OCCn3cc(C(N)CO)nn3)c(Oc3ccc(C(=O)O)c(F)c3)cc21` (stereo partly drawn) [Example 37, 4-(((1R)-6-(2-(4-(1-amino-2-hydroxyethyl)-1H-1,2,3-triazol-1-yl)ethoxy)-1-methyl-1-(2-oxo-2-(thiazol-2-ylamino)ethyl)-1,2,3,4-tetrahydroisoquinolin-7-yl)oxy)-2-fluorobenzoic acid] was tested. Which ΔTm at 300 µM [1] did it give?
**A.** The ΔTm at 300 µM was 5.63 °C.

**Q.** What about the IC50 [2] of the same compound?
**A.** Its IC50 is 615 nM.

**Q.** How did the ΔTm at 300 µM [1] turn out when `C[C@]1(CC(=O)Nc2nccs2)NCCc2cc(OCCn3cc(CCCCCCCCC(=O)O)nn3)c(Oc3ccc(C(=O)O)c(F)c3)cc21` [Example 44, (R)-4-((6-(2-(4-(8-carboxyoctyl)-1H-1,2,3-triazol-1-yl)ethoxy)-1-methyl-1-(2-oxo-2-(thiazol-2-ylamino)ethyl)-1,2,3,4-tetrahydroisoquinolin-7-yl)oxy)-2-fluorobenzoic acid] was run?
**A.** The ΔTm at 300 µM was 6.89 °C.

**Q.** And the IC50 [2]?
**A.** Its IC50 is 426 nM.

**Q.** What does the source list for `COc1cc2c(cc1Oc1ccc(-c3ccc(CC(=O)O)cc3)c(F)c1)[C@@](C)(CC(=O)Nc1nccs1)NCC2` [Example 31, (R)-2-(2′-fluoro-4′-((6-methoxy-1-methyl-1-(2-oxo-2-(thiazol-2-ylamino)ethyl)-1,2,3,4-tetrahydroisoquinolin-7-yl)oxy)-[1,1′-biphenyl]-4-yl)acetic acid]?
**A.** ΔTm at 300 µM [1]: 5.84 °C; IC50 [2]: 522 nM

**Q.** Which results are given for `C[C@]1(CC(=O)Nc2nccs2)NCCc2cc(OCCn3cc(CNS(C)(=O)=O)nn3)c(Oc3ccc(C(=O)O)c(F)c3)cc21` [Example 50, (R)-2-fluoro-4-((1-methyl-6-(2-(4-(methylsulfonamidomethyl)-1H-1,2,3-triazol-1-yl)ethoxy)-1-(2-oxo-2-(thiazol-2-ylamino)ethyl)-1,2,3,4-tetrahydroisoquinolin-7-yl)oxy)benzoic acid]?
**A.** ΔTm at 300 µM [1]: 6.74 °C; IC50 [2]: 683 nM

**Q.** For `COC(=O)c1cc(-c2cc3c(cc2OC)CCN[C@]3(C)CC(=O)Nc2nccs2)ccc1F` [Example 109, methyl (R)-2-fluoro-5-(6-methoxy-1-methyl-1-(2-oxo-2-(thiazol-2-ylamino)ethyl)-1,2,3,4-tetrahydroisoquinolin-7-yl)benzoate], which ΔTm at 300 µM [1] is on record?
**A.** The ΔTm at 300 µM was 6.02 °C.

**Q.** And the IC50 [2]?
**A.** Its IC50 is 664 nM.

**Q.** With `COc1cc2c(cc1Oc1ccc(-c3ccc(C(=O)O)cc3)cc1)[C@@](C)(CC(=O)Nc1nccs1)NCC2` [Example 34, (R)-4′-((6-methoxy-1-methyl-1-(2-oxo-2-(thiazol-2-ylamino)ethyl)-l,2,3,4-tetrahydroisoquinolin-7-yl)oxy)-[1,1′-biphenyl]-4-carboxylic acid] as the compound, how does the “DSC ΔTm” value [1] read?
**A.** The value was 5.5 °C.

**Q.** What about the IC50 [2] of the same compound?
**A.** The IC50 was 667 nM.

**Q.** `C[C@]1(CC(=O)Nc2nccs2)NCCc2cc(OCCn3cc(C(O)C(N)C(=O)O)nn3)c(Oc3ccc(C(=O)O)c(F)c3)cc21` (stereo partly drawn) [Example 53, 4-(((1R)-6-(2-(4-(2-amino-2-carboxy-1-hydroxyethyl)-1H-1,2,3-triazol-1-yl)ethoxy)-1-methyl-1-(2-oxo-2-(thiazol-2-ylamino)ethyl)-1,2,3,4-tetrahydroisoquinolin-7-yl)oxy)-2-fluorobenzoic acid] was tested. Which ΔTm at 300 µM [1] did it give?
**A.** The ΔTm at 300 µM was 6.96 °C.

**Q.** And the IC50 [2]?
**A.** The IC50 was 823 nM.

**Q.** With `COc1cc2c(cc1Oc1ccc(-c3c[nH]c(C(=O)O)c3)c(F)c1)[C@@](C)(CC(=O)Nc1nccs1)NCC2` [Example 14, (R)-4-(2-fluoro-4-((6-methoxy-1-methyl-1-(2-oxo-2-(thiazol-2-ylamino)ethyl)-1,2,3,4-tetrahydroisoquinolin-7-yl)oxy)phenyl)-1H-pyrrole-2-carboxylic acid] as the compound, how does the ΔTm at 300 µM [1] read?
**A.** The ΔTm at 300 µM was 5.89 °C.

**Q.** And the IC50 [2]?
**A.** Its IC50 is 0.237 nM.

**Q.** What does the source list for `C[C@]1(CC(=O)Nc2nccs2)NCCc2cc(OCc3ccccn3)c(Oc3cccc(F)c3)cc21` [Example 83, (R)-2-(7-(3-fluorophenoxy)-1-methyl-6-(pyridin-2-ylmethoxy)-1,2,3,4-tetrahydroisoquinolin-1-yl)-N-(thiazol-2-yl)acetamide]?
**A.** ΔTm at 300 µM [1]: 5.2 °C; IC50 [2]: 852 nM

**Q.** `COc1cc2c(cc1Oc1ccc(-c3ccc(C(=O)O)cc3)cc1)[C@@](C)(CC(=O)Nc1nccs1)NCC2` [Example 26, (R)-4′-((6-methoxy-1-methyl-1-(2-oxo-2-(thiazol-2-ylamino)ethyl)-1,2,3,4-tetrahydroisoquinolin-7-yl)oxy)-[1,1′-biphenyl]-4-carboxylic acid] was tested. Which ΔTm at 300 µM [1] did it give?
**A.** Its ΔTm at 300 µM is 5.75 °C.

**Q.** And the IC50 [2]?
**A.** The IC50 was 386 nM.

**Q.** With `Cc1ccc(C2C(C(=O)O)c3ccccc3C(=O)N2c2cccc(-c3cn(CCOc4cc5c(cc4Oc4ccc(C(=O)O)c(F)c4)[C@@](C)(CC(=O)Nc4nccs4)NCC5)nn3)c2)cc1` (stereo partly drawn) [Example 51, 2-(3-(1-(2-(((R)-7-(4-carboxy-3-fluorophenoxy)-1-methyl-1-(2-oxo-2-(thiazol-2-ylamino)ethyl)-1,2,3,4-tetrahydroisoquinolin-6-yl)oxy)ethyl)-1H-1,2,3-triazol-4-yl)phenyl)-1-oxo-3-(p-tolyl)-1,2,3,4-tetrahydroisoquinoline-4-carboxylic acid] as the compound, how does the ΔTm at 300 µM [1] read?
**A.** The ΔTm at 300 µM was 6.87 °C.

**Q.** What about the IC50 [2] of the same compound?
**A.** The IC50 was 705 nM.

**Q.** How did the ΔTm at 300 µM [1] turn out when `COC(=O)c1ccc(Oc2cc3c(cc2OCC2CCCCO2)CCN[C@]3(C)CC(=O)Nc2nccs2)cc1F` (stereo partly drawn) [Example 72, methyl 2-fluoro-4-(((1R)-1-methyl-1-(2-oxo-2-(thiazol-2-ylamino)ethyl)-6-((tetrahydro-2H-pyran-2-yl)methoxy)-1,2,3,4-tetrahydroisoquinolin-7-yl)oxy)benzoate] was run?
**A.** The ΔTm at 300 µM was 6.15 °C.

**Q.** What about the IC50 [2] of the same compound?
**A.** The IC50 was 680 nM.

**Q.** `COc1cc2c(cc1Oc1ccc(-c3ccc(C(=O)O)cc3F)cc1)[C@@](C)(CC(=O)Nc1nccs1)NCC2` [Example 29, (R)-2-fluoro-4′-((6-methoxy-1-methyl-1-(2-oxo-2-(thiazol-2-ylamino)ethyl)-1,2,3,4-tetrahydroisoquinolin-7-yl)oxy)-[1,1′-biphenyl]-4-carboxylic acid] was tested. Which ΔTm at 300 µM [1] did it give?
**A.** The ΔTm at 300 µM was 5.37 °C.

**Q.** And the IC50 [2]?
**A.** The IC50 was 416 nM.

**Q.** What does the source list for `CC1(CC(=O)Nc2nccs2)NCCc2cc(OCC3CCCCO3)c(-c3ccc(F)c(C(=O)O)c3)cc21` (stereo not drawn) [Example 110, 2-fluoro-5-(1-methyl-1-(2-oxo-2-(thiazol-2-ylamino)ethyl)-6-((tetrahydro-2H-pyran-2-yl)methoxy)-1,2,3,4-tetrahydroisoquinolin-7-yl)benzoic acid]?
**A.** ΔTm at 300 µM [1]: 6.7 °C; IC50 [2]: 0.98 nM
